US20050074426A1, “Fusions of cytokines and tumor targeting proteins” (priority 2002, published 2005)
Where two headings read alike, the source gives them in different places.

Tests used:
[1] = cited from earlier work
p55TNFR = target: T1, p55TNFR (Homo sapiens, UniProt P19438); conditions: cited from earlier work
T1 sequence (P19438 30-455): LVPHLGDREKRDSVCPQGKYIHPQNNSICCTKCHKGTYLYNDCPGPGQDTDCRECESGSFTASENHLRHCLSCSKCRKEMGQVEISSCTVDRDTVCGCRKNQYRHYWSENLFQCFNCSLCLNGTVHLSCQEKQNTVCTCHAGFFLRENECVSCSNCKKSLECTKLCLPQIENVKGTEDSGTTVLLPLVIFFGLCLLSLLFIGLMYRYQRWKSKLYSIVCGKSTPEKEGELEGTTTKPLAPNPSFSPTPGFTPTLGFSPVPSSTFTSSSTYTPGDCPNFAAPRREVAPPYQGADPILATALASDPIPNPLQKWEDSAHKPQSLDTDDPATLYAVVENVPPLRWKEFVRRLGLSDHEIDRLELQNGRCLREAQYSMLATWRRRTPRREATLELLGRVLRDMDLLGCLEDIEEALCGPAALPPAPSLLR

p75TNFR = target: T2, p75TNFR (Homo sapiens, UniProt P20333); conditions: cited from earlier work
T2 sequence (P20333 23-461): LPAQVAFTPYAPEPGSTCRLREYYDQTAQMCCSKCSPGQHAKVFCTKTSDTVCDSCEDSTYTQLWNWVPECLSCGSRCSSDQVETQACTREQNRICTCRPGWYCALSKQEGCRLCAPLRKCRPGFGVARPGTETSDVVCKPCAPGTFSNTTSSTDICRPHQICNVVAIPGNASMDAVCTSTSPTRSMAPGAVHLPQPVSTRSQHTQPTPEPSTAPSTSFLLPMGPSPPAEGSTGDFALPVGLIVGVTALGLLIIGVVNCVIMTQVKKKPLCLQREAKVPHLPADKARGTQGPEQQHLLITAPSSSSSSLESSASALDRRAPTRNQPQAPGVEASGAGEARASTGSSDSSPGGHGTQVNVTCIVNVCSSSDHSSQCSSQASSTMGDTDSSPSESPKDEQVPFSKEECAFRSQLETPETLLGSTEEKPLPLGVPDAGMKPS

[2] = lethality in RMA-T tumor bearing mice; format: in vivo, C57BL/6 mice; conditions: 3 days after treatment, single dose i.p.
Procedure: (§1) In vivo studies on animal models were approved by the Ethical Committee of the San Raffaele H Scientific Institute and performed according to the prescribed guidelines. C57BL/6 (Charles River Laboratories, Calco, Italy) (16-18 g) were challenged with 5×10^4 RMA-T or TSA living cells, respectively, s.c. in the left flank. Ten-twelve days after tumor implantation, mice were treated, i.p., with 250 μl TNF or RGD-TNF solutions, diluted with endotoxin-free 0.9% sodium chloride. […] Each experiment was carried out with 5 mice per group. The tumor growth was monitored daily by measuring the tumor size with calipers. The tumor area was estimated by calculating r1×r2 π, whereas tumor volume was estimated by calculating r1×r2×r3×4/3 π, where r1 and r2 are the longitudinal and lateral radii, and r3 is the thickness of tumors protruding from the surface of normal skin. Animals were killed before the tumor reached 1.0-1.3 cm diameter. Tumor sizes are shown as mean±SE (5-10 animals per group) and compared by t-test.
Murine TNF administered to animals bearing established s.c. RMA-T tumors, causes 24 h later a reduction in the tumor mass and haemorragic necrosis in the central part of the tumor, followed by a significant growth delay for few days (71). […] In a first set of experiments we investigated the effect of various doses (i.p.) of TNF or RGD-TNF on animal survival. […]

[3] = test system: L-M mouse fibroblasts (ATCC CCL1.2)
RMA-T lymphoma = test: anti-tumor activity and survival in RMA-T lymphoma bearing mice; format: in vivo, C57BL/6 mice
Procedure: The Rauscher virus-induced RMA lymphoma of C57BL/6 origin (69) were maintained in vitro in RPMI 1640, 5% fetal bovine serum (FBS), 100 U/ml penicillin, 100 μg/ml streptomycin, 0.25 μg/ml amphotericin B, 2 mM glutamine and 50 μM 2-mercaptoethanol. RMA-T was derived from the RMA cell line by transfection with a construct encoding the Thy 1.1 allele and cultured as described Moro, 1997 #28].
as §1, with “flank.” for “flank. Ten-twelve days after tumor implantation, mice were treated, i.p., with 250 μl TNF or RGD-TNF solutions, diluted with endotoxin-free 0.9% sodium chloride.”
To avoid excessive suffering, the animals were killed when the tumor diameter was greater than 1-1.3 cm.

[4] = dose 1 μg i.v., treated 12 days after tumor implantation
[5] = dose 2 μg i.v., treated 12 days after tumor implantation
[6] = dose 4 μg i.v., treated 12 days after tumor implantation

## TNF: Tumor Necrosis Factor-α; in the examples murine recombinant Met-TNF1-156 produced in E. coli
[1]; bolus, intravenous, humans
  maximum tolerated dose: 218-410 μg/m^2
[1]; systemic administration
  maximum tolerated dose: 8 to 10 µg/kg
p55TNFR
  Kd: 0.5 nM
p75TNFR
  Kd: 0.1 nM
[2]
  LD50 (lethality): 6 µg
[3]
  in vitro cytotoxic activity: (1.2±0.14)×10^8 units/mg
RMA-T lymphoma; [4]
  Survival (%) Day 14: 100%
  Survival (%) Day 22: 22%
  Survival (%) Day 32: 0%
RMA-T lymphoma; [5]
  Survival (%) Day 14: 100%
  Survival (%) Day 22: 37%
  Survival (%) Day 32: 0%
RMA-T lymphoma; dose 4 μg i.v., re-challenge with 50.000 RMA-T at day 90
  Survival (%) Day 90 (2nd ch.): 0%
RMA-T lymphoma; [6]
  Survival (%) Day 14: 100%
  Survival (%) Day 22: 70%
  Survival (%) Day 32: 30%
  Survival (%) Day 37: 10%
RMA-T lymphoma; dose 8 μg i.v., treated 12 days after tumor implantation
  Survival (%) Day 14: 0%
RMA-T lymphoma; dose 16 μg i.v., treated 12 days after tumor implantation
  Survival (%) Day 14: 0%
RMA-T lymphoma; single treatment, RGD-TNF 16 μg, TNF all doses
  animals cured: no animals at all were cured
